These results are taken from patent publication US9187458B2, “Cyanoquinoline derivatives” (Tianjin Hemay Bio-Tech Co., LTD., priority 2010, dated 2015).

One test concerns NCI-N87 cells. As to the kind of experiment: NCI-N87 Cell Growth Inhibition Test (MTT Assay). It is filed as cell-based. The conditions noted are these: Homo sapiens, 72 h incubation. As for the experimental part: NCI-N87 Cell Growth Inhibition Test (MTT Assay)
1. Cell strains: NCI-N87 (human gastric carcinoma cell strains);
(§1) 1. A plate (10 cm) of cells in logarithmic growth phase normally cultured was collected;
2. The culture solution was sucked out. The plate was washed wtih 5 ml of PBS 1-2 times;
3. PBS was sucked out. 1.5 ml of 0.25% pancreatin was added to infiltrate the cells for 1 min;
4. The pancreatin was sucked out. The culture plate was placed in an incubator. Digestion was carried out for about 12 min at 37° C.;
5. 4.5 ml of complete culture solution was added to the culture plate to stop the digestion. The cells were carefully scoured with micropipette (1 ml) to give a uniform cell suspension. The suspension was implanted into a 96-well cell culture disc by 17000 cells/100 μl per well. The culture plate was incubated overnight under 5% CO2 at 37° C. In day 2, 100 μl of culture solution comprising a compound was added in each well, and further incubated for 72 h under 5% CO2 at 37° C.
(§2) 6. The culture solution was sucked out;
(§3) 7. 100 μl of serum-free culture solution containing 0.5 mg/ml MTT was added in each well, and incubated for 3 h;
(§4) 8. The culture solution was carefully sucked out;
9. 100 μl of DMSO was added in each welland vibrated to dissolve;
(§5) 10. OD values were determined at 490 nM.
1. Calculation of Rrelative Inhibition Ratio The inhibition ratio of a compound on cell growth=(PC−n)/(PC−NC)×100%
(§6) IC50: Concentration of a compound where inhibition ratio was 50%. IC50 values were fitted with Origin7.5.

In the next test the test system is NCI-H460 cells. As to the kind of experiment: NCI-H460 Cell Growth Inhibition Test (MTT Assay). It is filed as cell-based. The settings on record: Homo sapiens, 72 h incubation. As for the experimental part:
NCI-H460 Cell Growth Inhibition Test (MTT Assay)
1. Cell strains: NCI-H460 (human large cell lung cancer cell strains);
as §1
2. The culture solution was sucked out. The plate was washed with 5 ml of PBS 1-2 times;
(§7) 3. PBS was sucked out. 2 ml of 0.25% pancreatin was added to infiltrate the cells for 1 min;
(§8) 4. The pancreatin was sucked out. The culture plate was placed in an incubator. Digestion was carried out for about 2 min at 37° C.;
(§9) 5. 4 ml of complete culture solution was added to the culture plate to stop the digestion. The cells were carefully scoured with micropipette (1 ml) to give a uniform cell suspension. The suspension was implanted into a 96-well cell culture plate by 2500 cells/100 μl per well. The culture plate was incubated overnight under 5% CO2 at 37° C. In day 2, 100 μl of culture solution comprising a compound was added in each well, and further incubated for 72 h under 5% CO2 at 37° C.
as §2, §3, §4
(§10) 9. 100 μl of DMSO was added in each well and vibrated to dissolve;
as §5
(§11) 1. Calculation of Relative Inhibition Ratio The inhibition ratio of a compound on cell growth=(PC−n)/(PC−NC)×100%
as §6

The subject of the next test is A549 cells. Nature of the test: A549 Cell Growth Inhibition Test (MTT Assay). The settings on record: Homo sapiens, 72 h incubation. It is filed as cell-based. As for the experimental part: A549 Cell Growth Inhibition Test (MTT Assay)
1. Cell strains: […] (human lung caner cell strains);
Culture medium: 90% F12K+10% FBS;
as §1
2. The culture solution was sucked out. Tthe plate was washed with 5 ml of PBS 1-2 times;
as §7, §8, §9, §2, §3, §4, §10, §5, §11, §6

Another test deals with A431 cells. Nature of the test: A431 Cell Growth Inhibition Test (MTT Assay). It is filed as cell-based, human. The conditions noted are these: Homo sapiens; for IC50: A-431, 68 h incubation; for inhibition at 1 µM: A-431, 68 h, compound 1 μM, 68 h incubation, read-out: Growth Inhibition Ratio (%). Put shortly: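 Cells seeded at 2500/well in DMEM/F12 with 10% FBS, grown overnight, then exposed to compound for 68 h at 37 °C, 5% CO2. Viability by MTT (0.5 mg/ml, 4 h), DMSO-solubilised, OD 490 nm; IC50 is concentration giving 50% growth inhibition relative to controls.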

A further test relates to Fadu cells. Nature of the test: Fadu Cell Growth Inhibition Test (MTT Assay). It is filed as cell-based. The conditions noted are these: Homo sapiens, 72 h incubation. In outline: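 Fadu head and neck cancer cells in EMEM + 10% FBS, 6000 cells/well, dosed next day and incubated 72 h at 37 °C, 5% CO2. MTT 0.5 mg/ml for 3 h, DMSO solubilization, OD at 490 nm; inhibition ratio from positive and negative controls, IC50 from fitted curve.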

A further test has as its system AsPC-1 cells. As to the kind of experiment: AsPC-1 Cell Growth Inhibition Test (MTT Assay). It is filed as cell-based. The settings on record: Homo sapiens, ASPC1, 72 h incubation. Put shortly:
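Human pancreatic cancer AsPC-1 cells seeded at 8000 cells/well, incubated overnight, then exposed to compound for 72 h at 37 °C, 5% CO2. Viability read by MTT (0.5 mg/ml, 3 h), formazan dissolved in DMSO, OD at 490 nm. Inhibition ratio = (PC−n)/(PC−NC)×100%; IC50 = concentration giving 50% inhibition, curve-fitted.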

For the molecule `CN(C)C/C=C/C(=O)Nc1cc2c(Nc3cccc(Br)c3)c(C#N)cnc2cc1OC1CCOC1` (centres unmarked) [Example 7, (E)-N-(4-(3-BROMOPHENYLAMINO)-3-CYANO-7-(TETRAHYDROFURAN-3-YL-OXY)QUINOLIN-6-YL)-4-(DIMETHYLAMINO)-BUT-2-ENAMIDE], the IC50 (in general, the concentration needed to halve the response being measured) worked out at 113 nM in the test on NCI-N87 cells; 940 nM in the test with NCI-H460 cells; 3000 nM in the test with A549 cells; 160 nM in the test on A431 cells; 474 nM with Fadu cells.

For `CN(C)C/C=C/C(=O)Nc1cc2c(Nc3ccc(OCc4ccccc4Cl)c(Cl)c3)c(C#N)cnc2cc1OC1CCOC1` (centres unmarked) [Example 10, (E)-N-(4-(4-(2-CHLOROBENZYLOXY)-3-CHLOROPHENYLAMINO)-3-CYANO-7-(TETRAHYDROFURAN-3-YL-OXY)QUINOLIN-6-YL)-4-(DIMETHYLAMINO)-BUT-2-ENAMIDE], the IC50 in the test with NCI-N87 cells came out at 11 nM; in the test on AsPC-1 cells, 1000 nM; in the test on NCI-H460 cells it was 1700 nM; with A549 cells, 2300 nM; in the test on A431 cells, 222 nM.

Turning to `CN(C)C/C=C/C(=O)Nc1cc2c(Nc3ccc(OCc4ccc(Cl)cc4)c(Cl)c3)c(C#N)cnc2cc1OC1CCOC1` (centres unmarked) [Example 16, (E)-N-(4-(4-(4-CHLOROBENZYLOXY)-3-CHLOROPHENYLAMINO)-3-CYANO-7-(TETRAHYDROFURAN-3-YL-OXY)QUINOLIN-6-YL)-4-(DIMETHYLAMINO)-BUT-2-ENAMIDE], the IC50 with NCI-N87 cells is 26 nM; in the test with AsPC-1 cells it was 810 nM; in the test on NCI-H460 cells, 1100 nM; in the test on A549 cells it was 3400 nM; with A431 cells, 358 nM.

As to `Cc1ccccc1COc1ccc(Nc2c(C#N)cnc3cc(OC4CCOC4)c(NC(=O)/C=C/CN(C)C)cc23)cc1Cl` (centres unmarked) [Example 17, (E)-N-(4-(4-(2-METHYLBENZYLOXY)-3-CHLOROPHENYLAMINO)-3-CYANO-7-(TETRAHYDROFURAN-3-YL-OXY)QUINOLIN-6-YL)-4-(DIMETHYLAMINO)-BUT-2-ENAMIDE], the IC50 in the test with NCI-N87 cells came out at 21 nM; in the test on AsPC-1 cells it was 1000 nM; in the test with NCI-H460 cells it was 1500 nM; in the test with A549 cells it was 2400 nM; in the test with A431 cells, 194 nM.

As for `CN(C)C/C=C/C(=O)Nc1cc2c(Nc3ccc(OCc4ccccn4)c(Cl)c3)c(C#N)cnc2cc1OC1CCOC1` (centres unmarked) [Example 21, (E)-N-(4-(3-CHLORO-4-(PYRIDIN-2-YL-METHOXY)PHENYLAMINO)-3-CYANO-7-(TETRAHYDROFURAN-3-YL-OXY)QUINOLIN-6-YL)-4-(DIMETHYLAMINO)-BUT-2-ENAMIDE], the IC50 in the test with NCI-N87 cells amounted to 6.8 nM; with NCI-H460 cells, 2700 nM; in the test with A549 cells it was 900 nM; in the test on A431 cells, 81 nM.

With `C#Cc1cccc(Nc2c(C#N)cnc3cc(O[C@H]4CCOC4)c(NC(=O)/C=C/CN(CC)CC)cc23)c1` [Example 143, (S,E)-N-(3-CYANO-4-(3-ETHYNYLPHENYLAMINO)-7-(TETRAHYDROFURAN-3-YL-OXY)QUINOLIN-6-YL)-4-(DIETHYLAMINO)-BUT-2-ENAMIDE], the IC50 in the test with NCI-N87 cells is 89 nM; in the test on A549 cells it was 1500 nM; in the test on A431 cells, 59 nM; in the test with Fadu cells, 127 nM. In the test on A431 cells, the inhibition at 1 µM came to 70%.

`C#Cc1cccc(Nc2c(C#N)cnc3cc(O[C@H]4CCOC4)c(NC(=O)/C=C/CN4CCCCC4)cc23)c1` [Example 144, (S,E)-N-(3-CYANO-4-(3-ETHYNYLPHENYLAMINO)-7-(TETRAHYDROFURAN-3-YL-OXY)QUINOLIN-6-YL)-4-(PIPERIDIN-1-YL)-BUT-2-ENAMIDE]: the IC50 with NCI-N87 cells is 98 nM; in the test with A549 cells, 1000 nM; in the test on A431 cells, 26 nM; with Fadu cells, 103 nM.

In the case of `C#Cc1cccc(Nc2c(C#N)cnc3cc(O[C@H]4CCOC4)c(NC(=O)/C=C/CN4CCOCC4)cc23)c1` [Example 145, (S,E)-N-(3-CYANO-4-(3-ETHYNYLPHENYLAMINO)-7-(TETRAHYDROFURAN-3-YL-OXY)QUINOLIN-6-YL)-4-(MORPHOLIN-4-YL)-BUT-2-ENAMIDE], the IC50 turned out to be 346 nM in the test on NCI-N87 cells, 6700 nM in the test on A549 cells, 71 nM in the test on A431 cells and 194 nM in the test on Fadu cells.

As to `C#Cc1cccc(Nc2c(C#N)cnc3cc(O[C@H]4CCOC4)c(NC(=O)/C=C/CNC(C)(C)C)cc23)c1` [Example 146, (S,E)-N-(3-CYANO-4-(3-ETHYNYLPHENYLAMINO)-7-(TETRAHYDROFURAN-3-YL-OXY)QUINOLIN-6-YL)-4-(TERT-BUTYLAIMINO)-BUT-2-ENAMIDE], the concentration for half-maximal inhibition (IC50) amounted to 189 nM in the test on NCI-N87 cells, 7000 nM in the test on A549 cells, 53 nM in the test on A431 cells and 200 nM in the test with Fadu cells.

On to `C#Cc1cccc(Nc2c(C#N)cnc3cc(O[C@H]4CCOC4)c(NC(=O)/C=C/CN(C)Cc4ccccc4)cc23)c1` [Example 149, (S,E)-N-(3-CYANO-4-(3-ETHYNYLPHENYLAMINO)-7-(TETRAHYDROFURAN-3-YL-OXY)QUINOLIN-6-YL)-4-(N-METHYLBENZYLAMINO)-BUT-2-ENAMIDE], for which the values for the IC50 in the test with NCI-N87 cells, in the test on A431 cells and in the test with Fadu cells were 111 nM, 89 nM and 163 nM, respectively.

Turning to `CCN(CC)C/C=C/C(=O)Nc1cc2c(Nc3ccc(OCc4ccccn4)c(Cl)c3)c(C#N)cnc2cc1O[C@H]1CCOC1` [Example 150, (S,E)-N-(4-(3-CHLORO-4-(PYRIDIN-2-YL-METHOXY)PHENYLAMINO)-3-CYANO-7-(TETRAHYDROFURAN-3-YL-OXY)QUINOLIN-6-YL)-4-(DIETHYLAMINO)-BUT-2-ENAMIDE], the IC50 came out at 6.6 nM with NCI-N87 cells; 895 nM in the test with AsPC-1 cells; 3800 nM in the test on A549 cells; 27 nM with A431 cells; 207 nM in the test with Fadu cells. The inhibition at 1 µM with A431 cells worked out at 84%.

In the case of `N#Cc1cnc2cc(O[C@H]3CCOC3)c(NC(=O)/C=C/CN3CCCCC3)cc2c1Nc1ccc(OCc2ccccn2)c(Cl)c1` [Example 151, (S,E)-N-(4-(3-CHLORO-4-(PYRIDIN-2-YL-METHOXY)PHENYLAMINO)-3-CYANO-7-(TETRAHYDROFURAN-3-YL-OXY)QUINOLIN-6-YL)-4-(PIPERIDIN-1-YL)-BUT-2-ENAMIDE], the IC50 in the test on NCI-N87 cells came out at 16 nM; with AsPC-1 cells it was 810 nM; with A549 cells, 3700 nM; in the test with A431 cells it was 61 nM; with Fadu cells, 244 nM.

Take `N#Cc1cnc2cc(O[C@H]3CCOC3)c(NC(=O)/C=C/CN3CCOCC3)cc2c1Nc1ccc(OCc2ccccn2)c(Cl)c1` [Example 152, (S,E)-N-(4-(3-CHLORO-4-(PYRIDIN-2-YL-METHOXY)PHENYLAMINO)-3-CYANO-7-(TETRAHYDROFURAN-3-YL-OXY)QUINOLIN-6-YL)-4-(MORPHOLIN-4-YL)-BUT-2-ENAMIDE]: the IC50 in the test on NCI-N87 cells is 20 nM; with A431 cells, 62 nM; in the test with Fadu cells, 170 nM.

Regarding `CC(C)(C)NC/C=C/C(=O)Nc1cc2c(Nc3ccc(OCc4ccccn4)c(Cl)c3)c(C#N)cnc2cc1O[C@H]1CCOC1` [Example 153, (S,E)-N-(4-(3-CHLORO-4-(PYRIDIN-2-YL-METHOXY)PHENYLAMINO)-3-CYANO-7-(TETRAHYDROFURAN-3-YL-OXY)QUINOLIN-6-YL)-4-(TERT-BUTYLAMINO)-BUT-2-ENAMIDE], the IC50 in the test on NCI-N87 cells was 15 nM; in the test on A549 cells, 6400 nM; in the test with A431 cells, 53 nM; with Fadu cells, 231 nM.
